Reference: PubChem BioAssay AID2693 (Broad Institute, 2010)
In brackets after ≈: the same amount, converted by molar mass. Results filed as inconclusive are left out. Activity calls are given as the source filed them.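 The calls were made as follows: active = a dose response whose lowest growth-blocking dose, signal 3 SD under solvent wells, sits below the top dose; inconclusive = compound fluoresces without dose trend, or replicates split around top dose; inactive = no growth loss up to the top dose.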

System: S. cerevisiae SKY197-pL101 growth, alamar blue fluorescence, 9 h
Experiment: S. cerevisiae growth inhibition, dose response, counter-screen for polyadenylation inhibitor project, Alamar Blue fluorescence, MIC (AID 2693)

Which MIC does the source give for `N#CC1(C#N)C2=C(CCCC2)NC(c2ccccc2)C1(C#N)C#N` (stereo unspecified) here?
The MIC was 50 µM (≈ 15.7 µg/mL).

`N#C/C(=C/c1ccc([N+](=O)[O-])o1)c1nc2ccccc2[nH]1` was tested. Which MIC did it give?
The MIC was 2.3 µM (≈ 0.645 µg/mL).

Which MIC does the source give for `Cc1ccc(C(=O)c2no[n+]([O-])c2C(=O)c2ccc(C)cc2)cc1` here?
Its MIC is 3.1 µM (≈ 0.999 µg/mL).

`O=C(COC(=O)Cc1ccc(S(=O)(=O)N2CCOCC2)s1)NCc1ccc(Cl)cc1` was tested. Which MIC did it give?
The MIC was > 50 µM (inactive).

Which MIC does the source give for `COc1cc(/C=C2/SC(=S)N(Cc3ccccc3)C2=O)cc(OC)c1O` here?
Its MIC is > 50 µM (inactive).

With `CC(=O)c1ccc(Sc2ccccc2)c([N+](=O)[O-])c1` as the compound, how does the MIC read?
The MIC was > 50 µM (inactive).

`COc1cc(/C=C2/CC/C(=C/c3ccc(O)c(OC)c3)C2=O)ccc1O` was tested. Which MIC did it give?
The MIC was > 50 µM (inactive).

How did the MIC turn out when `CCOc1cc(/C=C2\N=C(SC(C)C(N)=O)N(c3ccc(OC(F)F)cc3)C2=O)ccc1O` (stereo unspecified) was run?
The MIC was > 50 µM (inactive).

How did the MIC turn out when `CCN1/C(=C\C=C\c2sc3ccccc3[n+]2CC)Sc2ccccc21` was run?
The MIC was 4.8 µM.

For `O=C(O)CN1C(=O)/C(=C\c2ccc(N3CCCCC3)o2)SC1=S`, which MIC is on record?
Its MIC is 37 µM (≈ 13 µg/mL).

For `Nc1ncnc2c1ncn2C1OC(CO)CC1O` (stereo unspecified), which MIC is on record?
The MIC was > 50 µM (inactive).

How did the MIC turn out when `Cc1ccc(Nc2c(-c3ccc(C)o3)nc3ncccn23)cc1` was run?
The MIC was > 50 µM (inactive).

How did the MIC turn out when `Cc1ccc2nc(/C(C#N)=C/c3ccc([N+](=O)[O-])o3)[nH]c2c1` was run?
Its MIC is 2.3 µM (≈ 0.677 µg/mL).

How did the MIC turn out when `Cc1ccc(-c2nn3c(C)nnc3s2)cc1NC(=O)CSc1ccc(Cl)cc1` was run?
Its MIC is > 50 µM (inactive).

`COc1cc(/C=C2\SC(=S)N(NC(=O)c3ccncc3)C2=O)ccc1O` was tested. Which MIC did it give?
The MIC was 25 µM (≈ 9.69 µg/mL).

How did the MIC turn out when `O=C(Oc1c(-c2ccccc2)c(=O)n2c3c(cccc13)CC2)c1cccc([N+](=O)[O-])c1` was run?
Its MIC is > 50 µM (inactive).
